IC50 data for 25 molecules are collected here from patent US12630563B2, “Macrocyclic RIP2-kinase inhibitors” (Oncodesign S.A., priority 2020, dated 2026).

Some results are limits rather than exact numbers.

The target of the test is T1, recombinant hRIPK2 protein (kinase domain aa 1-299-His-tagged) (Homo sapiens, UniProt O43353).
T1 construct: kinase domain aa 1-299-His-tagged; purchased Life Technologies PR7829A
T1 sequence (O43353 1-299): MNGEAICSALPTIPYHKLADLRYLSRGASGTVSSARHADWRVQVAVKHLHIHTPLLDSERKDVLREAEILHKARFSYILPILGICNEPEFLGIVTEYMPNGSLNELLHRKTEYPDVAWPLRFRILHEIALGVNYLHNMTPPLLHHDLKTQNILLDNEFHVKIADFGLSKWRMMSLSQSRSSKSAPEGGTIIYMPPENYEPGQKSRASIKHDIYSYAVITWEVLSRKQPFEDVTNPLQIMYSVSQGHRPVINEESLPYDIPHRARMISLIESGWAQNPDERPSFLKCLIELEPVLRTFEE
In words: RIPK2 AlphaLISA assay (displacement of bead-bound CZC-8004 from hRIPK2). It is filed as binding. The conditions noted are these: recombinant hRIPK2 kinase domain 10 nM, 2 h at 23° C. An excerpt: RIPK2 AlphaLISA® Assay (Amplified Luminescent Proximity Homogeneous Assay)
A non-specific kinase inhibitor (CZC-8004 Cayman #916603-07-1) bound to an acceptor bead (#6772001 PerkinElmer) was mixed to the recombinant hRIPK2 protein (kinase domain aa 1-299-His-tagged—Life Technologies PR7829A) and a Ni2+-tagged donor beads (#AS101D PerkinElmer). In the presence of an inhibitor, the compound beads displacement from hRIPK2 was followed by signal loss. In a 384-well ProxiPlate@ (Perkin Elmer, 6008280) add:
2 μL RIPK2 inhibitor (in DMSO 0.8%).
2 μL human recombinant RIPK2 (10 nM diluted in AlphaLISA buffer 1×).
4 μL Mix of […] 1/1000 in AlphaLISA buffer 1×.
Homogenize using a microtiter plate shaker and incubate for 2 h at 23° C.
Read using EnVision®-Alpha Reader (PerkinElmer) according to manufacturer specifications.
As for `CO[C@@H]1C[C@H]2COc3nc4c(cnn4cc3-c3cn(C)nc3C)-c3cc(F)cc(c3)NCCN2C1=O` [Example 69], the IC50 – broadly, the concentration that inhibits the measured activity by half – was under 10 nM. As for `COCCO[C@@H]1C[C@H]2COc3nc4c(cnn4cc3C)-c3cc(cc(OC)c3)NCCN2C1=O` [Example 115, (12R, 14S)-4-methoxy-12-(2-16-oxa-7,10,20,21,24-pentaazapentacyclo[15.5.2. 1^2,6.0^10,^14.0^20,^23]pentacosa-1(23),2,4,6(25),17(24),18, 21-heptaen-11-one], the figure is under 10 nM; as for `CO[C@@H]1C[C@H]2COc3ccn4ncc(c4n3)-c3cc(cc(-c4cnn(CCO)c4)c3)NCCN2C1=O` [Example 93, (12R,14S)-4-[1-(2-hydroxyethyl)-1H-pyrazol-4-yl]-12-methoxy-16-oxa-7,10,20,21,24-pentaazapentacyclo[15.5.2.1^2,6.0^1°,^14.0^2°,^23]pentacosa-1(23),2,4,6(25),17(24),18,21-heptaen-11-one], 100 to 11000 nM; as for `COc1cc2cc(c1)-c1cnn3ccc(nc13)OC[C@@H]1C[C@@H](OC)C(=O)N1CC(C)N2` (single isomer, unassigned) [Example 106, (8R*,12R,14S)-4,12-dimethoxy-8-methyl-16-oxa-7,10,20,21,24-pentaazapentacyclo[15.5.2.1^2,6.0^1°,^14.0^2°,^23]pentacosa-1(23),2,4,6(25),17(24),18,21-heptaen-11-one], 10 to 100 nM. On to `CO[C@@H]1C[C@H]2COc3ccn4ncc(c4n3)-c3cc(cc(C(=O)N(C)CC4CC4)c3)NCCN2C1=O` [Example 61, (12R,14S)-N-(cyclopropylmethyl)-12-methoxy-N-methyl-11-oxo-16-oxa-7,10,20,21,24-pentaazapentacyclo[15.5.2.1^2,6.0^10,^14.0^20,^23]pentacosa-1(23),2,4,6(25),17(24),18,21-heptaene-4-carboxamide], for which the IC50 was 100 to 11000 nM. The same measure for `C#Cc1cc2cc(c1)-c1cnn3ccc(nc13)OC[C@@H]1C[C@@H](OCC)C(=O)N1CCN2` [Example 72, (12R,14S)-12-ethoxy-4-ethynyl-16-oxa-7,10,20,21,24-pentaazapentacyclo[15.5. 2.1^2,6.0^10,^14.0^20,^23]pentacosa-21-heptaen-11-one]: under 10 nM. The same measure for `CO[C@@H]1C[C@H]2COc3nc4c(cnn4cc3C)-c3cc(cc(OCC4CC4)c3)NCCN2C1=O` [Example 48, (12R,14S)-4-(cyclopropylmethoxy)-12-methoxy-18-methyl-16-oxa-7,10,20,21,24-pentaazapentacyclo[15.5.2.1^2,6.0^10,^14.0^20,^23]pentacosa-1(23),2,4,6(25),17(24),18,21-heptaen-11-one]: 100 to 11000 nM; for `COc1cc2cc(c1F)NCCN1C(=O)[C@H](OC)C[C@H]1COc1ccn3ncc-2c3n1` [Example 27, (12R,14S)-5-fluoro-4,12-dimethoxy-16-oxa-7,10,20,21,24-pentaazapentacyclo[15.5.2.1^2,6.0^10,^14.0^20,^23]pentacosa-1(23),2,4,6(25),17(24),18,21-heptaen-11-one]: under 10 nM; for `CCO[C@@H]1C[C@@H]2COc3ccn4ncc(c4n3)-c3cc(cc(OC)c3)NCCN2C1=O` [Example 87, (12R,14R)-12-ethoxy-4-methoxy-16-oxa-7,10,20,21,24-pentaazapentacyclo[15.5.2.1^2,6.0^10,^14.0^20,^23]pentacosa-1(23),2,4,6(25),17(24),18,21-heptaen-11-one]: 100 to 11000 nM. For the molecule `COCCOc1cn2ncc3c2nc1OC[C@@H]1C[C@@H](OCCOC)C(=O)N1CCNc1cc(OC)cc-3c1` [Example 137, (12R,14S)-4-methoxy-12,18-bis(2-methoxyethoxy)-16-oxa-7,10,20,21,24-pentaazapentacyclo[15.5.2. 1^2,6.0^10,^14.0^20,^23]pentacosa-1(23),2,4,6(25),17(24),18,21-heptaen-11-one], the IC50 was under 10 nM. For the molecule `CC#Cc1cc2cc(c1)-c1cnn3ccc(nc13)OC[C@@H]1C[C@@H](OC)C(=O)N1CCN2` [Example 88, (12R,14S)-12-methoxy-4-(prop-1-yn-1-yl)-16-oxa-7,10,20,21,24-pentaazapentacyclo[15.5.2.1^2,6.0^1°,^14.0^2°,^23]pentacosa-1(23),2,4,6(25),17(24),18,21-heptaen-11-one], the IC50 was under 10 nM. The same measure for `CO[C@@H]1C[C@H]2COc3ccn4ncc(c4n3)-c3cc(cc(OC(C)C)c3)NCCN2C1=O` [Example 8, (12R,14S)-12-methoxy-4-(propan-2-yloxy)-16-oxa-7,10,20,21,24-pentaazapentacyclo[15.5.2.1^2,6.0^10,^14.0^20,^23]pentacosa-1(23),2,4,6(25),17(24),18,21-heptaen-11-one]: under 10 nM. As for `CO[C@@H]1C[C@H]2COc3ccn4ncc(c4n3)-c3cc(cc(OC(F)F)c3)NCCN2C1=O` [Example 13, (12R,14S)-4-(difluoromethoxy)-12-methoxy-16-oxa-7,10,20,21,24-pentaazapentacyclo[15.5.2.1^2,6.0^10,^14.0^20,^23]pentacosa-1(23),2,4,6(25),17(24),18,21-heptaen-11-one], the IC50 is under 10 nM. With `COCCO[C@@H]1C[C@H]2COc3ccn4ncc(c4n3)-c3cc(F)cc(c3)NCCN2C1=O` [Example 35, (12R,14S)-4-fluoro-12-(2-methoxyethoxy)-16-oxa-7,10,20,21,24-pentaazapentacyclo[15.5.2.1^2,6.01^0,^14.0^20,23]pentacosa-1(23),2,4,6(25),17(24),18,21-heptaen-11-one], the IC50 was under 10 nM. As to `CO[C@@H]1C[C@H]2COc3ccn4ncc(c4n3)-c3cc(F)cc(c3)N(C(C)=O)CCN2C1=O` [Example 74, (12R,14S)-7-acetyl-4-fluoro-12-methoxy-16-oxa-7,10,20,21,24-pentaazapentacyclo[15.5.2.1^2,6.0^1°,^14.0^2°,^23]pentacosa-1(23),2,4,6(25),17(24),18,21-heptaen-11-one], the IC50 was in the range of 10 to 100 nM. The same measure for `O=C1[C@H](OC2CCC2)C[C@H]2COc3ccn4ncc(c4n3)-c3cc(F)cc(c3)NCCN12` [Example 10, (12R,14S)-12-cyclobutoxy-4-fluoro-16-oxa-7,10,20,21,24-pentaazapentacyclo[15.5.2.1^2,6.0^10,^14.0^20,^23]pentacosa-1(23),2,4,6(25),17(24),18,21-heptaen-11-one]: under 10 nM. The same measure for `CCOc1cn2ncc3c2nc1OC[C@@H]1C[C@@H](OCCOC)C(=O)N1CCNc1cc(OC)cc-3c1` [Example 124, (12R,14S)-18-ethoxy-4-methoxy-12-(2-methoxyethoxy)-16-oxa-7,10,20,21,24-pentaazapentacyclo[15.5.2. 1^2,6.0^10,^14.0^20,^23]pentacosa-1(23),2,4,6(25),17(24),18,21-heptaen-11-one]: under 10 nM.

Consider `CO[C@@H]1CC2(C)COc3ccn4ncc(c4n3)-c3cc(F)cc(c3)NCCN2C1=O` (stereo partly shown) [Example 40], for which the IC50 is under 10 nM. The same measure for `COc1cc2cc(c1)-c1cnn3ccc(nc13)OC[C@@H]1C[C@@H](OC)C(=O)N1CCN2` [Example 5, (12R,14S)-4,12-d i methoxy-16-oxa-7,10,20,21,24-pentaazapentacyclo[15.5.2.1^2,6.0^10,^14.0^20,^23]pentacosa-1(23),2(25),3,5,17(24),18,21-heptaen-11-one]: under 10 nM; for `COCCO[C@@H]1C[C@H]2COc3nc4c(cnn4cc3OC(C)C)-c3cc(cc(OC)c3)NCCN2C1=O` [Example 125, (12R,14S)-4-methoxy-12-(2-methoxyethoxy)-18-(propan-2-yloxy)-16-oxa-7,10,20,21,24-pentaazapentacyclo[15.5.2. 1^2,6.0^10,^14.0^20,^23]pentacosa-1(23),2,4,6(25),17(24),18,21-heptaen-11-one]: under 10 nM; for `C#Cc1cc2cc(c1)-c1cnn3ccc(nc13)OC[C@@H]1C[C@@H](OC)C(=O)N1CCN2` [Example 70, (12R,14S)-4-ethynyl-12-methoxy-16-oxa-7,10,20,21,24-pentaazapentacyclo[15.5.2.1^2,6.0^1°,^14.0^2°,^23]pentacosa-1(23),2(25),3,5,17(24),18,21-heptaen-11-one]: under 10 nM. As for `COCc1cn2ncc3c2nc1OC[C@@H]1C[C@@H](OC)C(=O)N1CCNc1cc(F)cc-3c1` [Example 33, (12R,14S)-4-fluoro-12-methoxy-18-(methoxymethyl)-16-oxa-7,10,20,21,24-pentaazapentacyclo[15.5.2.1^2,6.0^10,^14.0^20,^23]pentacosa-1(23),2(25),3,5,17(24),18,21-heptaen-11-one], the figure is under 10 nM.

As for `COCCO[C@@H]1C[C@H]2COc3ccn4ncc(c4n3)-c3cc(O)cc(c3)NCCN2C1=O` [Example 97, (12R,14S)-4-hydroxy-12-(2-methoxyethoxy)-16-oxa-7,10,20,21,24-pentaazapentacyclo[15.5.2. 1^2,6.0^10,^14.0^20,^23]pentacosa-1(23),2,4,6(25),17(24),18,21-heptaen-11-one], the IC50 is under 10 nM. Take `COCC1C[C@H]2COc3ccn4ncc(c4n3)-c3cc(F)cc(c3)NCCN2C1=O` (single isomer, unassigned) [Example 32]: the IC50 is under 10 nM. As to `COCCO[C@@H]1C[C@H]2COc3ccn4ncc(c4n3)-c3cc(cc(OC(F)F)c3)NCCN2C1=O` (racemic) [Example 111, (12R,14S)-4-(difluoromethoxy)-12-(2-methoxyethoxy)-16-oxa-7,10,20,21,24-pentaazapentacyclo[15.5.2.1^2,6.0^10,^14.0^20,^23]pentacosa-1(23),2(25),3,5,17(24),18,21-heptaen-11-one], the IC50 is under 10 nM.
